# Assay results taken from US9080214B2, “Genetic markers for efficacy of iloperidone in the treatment of psychotic symptoms” (Vanda Pharmaceuticals, Inc., priority 2007, dated 2015).
# Tested on: individuals diagnosed with schizophrenia
# Assay: Change in PANSS-N subscale by SNP genotype, patients on iloperidone 24 mg/day b.i.d. for 28 days (MMRM)
# Format: in vivo, human
# Description: Earlier studies investigated an association between a polymorphism in the CNTF gene and iloperidone efficacy as well as associations between CYP2D6 and KCNQ1 genotypes and changes in QT interval following the administration of iloperidone. The present study involved the genotyping of DNA samples collected from 426 individuals diagnosed with schizophrenia in an attempt to identify additional SNPs associated with iloperidone efficacy. Each sample was genotyped at more than 500,000 SNP loci using the GeneChip® Human Mapping 500K Array Set (Affymetrix, Santa Clara, Calif.) and using assays developed in-house. Approximately half of the participants in the study were administered 24 mg/day of iloperidone, b.i.d., for 28 days. About 25% of the patients were administered ziprasidone. The remaining participants were administered a placebo. Three analyses of the PANSS-T were conducted. 1) A two-step approach where samples were randomly split into 2 groups of iloperidone-treated patients used to discover SNPs associated with changed in PANSS-T (Discovery phase) and a second group to confirm the 100 most significant SNPs (Confirmatory phase). 2) A one-step approach using the Last Observation Carried Forward (LOCF) PANSS-T data of all iloperidone-treated patients. For each SNP, the most parsimonious genetic model (e.g., homozygous for one allele v. all other genotypes [i.e., AA v. AB and BB], heterozygous v. homozygous [i.e., AB v. AA and BB]) was established with respect to iloperidone efficacy using a one-way analysis of variance (ANOVA). 3) A Mixed-effects Model Repeated Measures (MMRM) analysis was subsequently conducted using the best genetic model of each SNP in the MMRM model. MMRM analyses were also conducted with the PANSS subscales PANSS-P, PANSS-N, and PANSS-GP. The SNPs with a statistically significant association in all 3 analyses of PANSS-T, as well as the best of each analysis were considered significant findings and are listed below in Table 1. Results for each of these SNPs with the PANSS-T scales and with the three subscales PANSS-P, PANSS-N, and PANSS-GP are shown in Tables 2, 3, 4, and 5, respectively. […] In the present case of iloperidone efficacy, it is likely that different markers are more specifically associated with one or a few specific clinical symptoms, which is reflected in the improvement measured in separate subscales.
smiles,measurement,setting,value
"COc1cc(C(C)=O)ccc1OCCCN1CCC(c2noc3cc(F)ccc23)CC1 [iloperidone, 1-[4-[3-[4-(6-fluoro-1,2-benzisoxazol-3-yl)-1-piperidinyl]propoxy]-3-methoxyphenyl]ethanone]",mean of change in PANSS-N,SNP_A-1819750 (CREG1) genotype A_A,−5.35
same,mean of change in PANSS-N,SNP_A-1819750 (CREG1) genotype A_B* (lowest response),−2.01
same,mean of change in PANSS-N,SNP_A-1819750 (CREG1) genotype B_B,−4.01
same,mean of change in PANSS-N,SNP_A-1819750 (CREG1) genotype nonAB** (highest response),−4.45
same,mean of change in PANSS-N,SNP_A-1860353 (RAP1B) genotype A_A** (highest response),−11.00
same,mean of change in PANSS-N,SNP_A-1860353 (RAP1B) genotype A_B,−2.29
same,mean of change in PANSS-N,SNP_A-1860353 (RAP1B) genotype B_B,−2.73
same,mean of change in PANSS-N,SNP_A-1860353 (RAP1B) genotype nonAA* (lowest response),−2.65
same,mean of change in PANSS-N,SNP_A-1934663 genotype A_A,−3.38
same,mean of change in PANSS-N,SNP_A-1934663 genotype A_B,−3.94
same,mean of change in PANSS-N,SNP_A-1934663 genotype B_B* (lowest response),−2.06
same,mean of change in PANSS-N,SNP_A-1934663 genotype nonBB** (highest response),−3.82
same,mean of change in PANSS-N,SNP_A-1973093 (KIAA0040) genotype A_A,−3.32
same,mean of change in PANSS-N,SNP_A-1973093 (KIAA0040) genotype A_B* (lowest response),−1.85
same,mean of change in PANSS-N,SNP_A-1973093 (KIAA0040) genotype B_B,−3.46
same,mean of change in PANSS-N,SNP_A-1973093 (KIAA0040) genotype nonAB** (highest response),−3.43
same,mean of change in PANSS-N,SNP_A-1975928 (SLC2A9) genotype A_A,−2.87
same,mean of change in PANSS-N,SNP_A-1975928 (SLC2A9) genotype A_B,−2.95
same,mean of change in PANSS-N,SNP_A-1975928 (SLC2A9) genotype B_B* (lowest response),0.62
same,mean of change in PANSS-N,SNP_A-1975928 (SLC2A9) genotype nonBB** (highest response),−2.89
same,mean of change in PANSS-N,SNP_A-1987915 (GPR126) genotype A_A,−1.91
same,mean of change in PANSS-N,SNP_A-1987915 (GPR126) genotype A_B,−2.03
same,mean of change in PANSS-N,SNP_A-1987915 (GPR126) genotype B_B** (highest response),−4.28
same,mean of change in PANSS-N,SNP_A-1987915 (GPR126) genotype nonBB* (lowest response),−2.00
same,mean of change in PANSS-N,SNP_A-2007721 (LOC58486) genotype A_A,0.51
same,mean of change in PANSS-N,SNP_A-2007721 (LOC58486) genotype A_B** (highest response),−4.73
same,mean of change in PANSS-N,SNP_A-2007721 (LOC58486) genotype B_B,−2.33
same,mean of change in PANSS-N,SNP_A-2007721 (LOC58486) genotype nonAB* (lowest response),−2.31
same,mean of change in PANSS-N,SNP_A-2044214 (HNT) genotype A_A,−3.32
same,mean of change in PANSS-N,SNP_A-2044214 (HNT) genotype A_B* (lowest response),−2.16
same,mean of change in PANSS-N,SNP_A-2044214 (HNT) genotype B_B,−3.05
same,mean of change in PANSS-N,SNP_A-2044214 (HNT) genotype nonAB** (highest response),−3.22
same,mean of change in PANSS-N,SNP_A-2048427 (NPAS3) genotype A_A,−4.12
same,mean of change in PANSS-N,SNP_A-2048427 (NPAS3) genotype A_B,−4.30
same,mean of change in PANSS-N,SNP_A-2048427 (NPAS3) genotype B_B* (lowest response),−2.27
same,mean of change in PANSS-N,SNP_A-2048427 (NPAS3) genotype nonBB** (highest response),−4.28
same,mean of change in PANSS-N,SNP_A-2070454 (NKX2-5) genotype A_A,−1.86
same,mean of change in PANSS-N,SNP_A-2070454 (NKX2-5) genotype A_B,−2.40
same,mean of change in PANSS-N,SNP_A-2070454 (NKX2-5) genotype B_B** (highest response),−4.58
same,mean of change in PANSS-N,SNP_A-2070454 (NKX2-5) genotype nonBB* (lowest response),−2.23
same,mean of change in PANSS-N,SNP_A-2076797 (NUDT9P1) genotype A_A,−1.75
same,mean of change in PANSS-N,SNP_A-2076797 (NUDT9P1) genotype A_B** (highest response),−4.06
same,mean of change in PANSS-N,SNP_A-2076797 (NUDT9P1) genotype B_B,−1.62
same,mean of change in PANSS-N,SNP_A-2076797 (NUDT9P1) genotype nonAB* (lowest response),−1.69
same,mean of change in PANSS-N,SNP_A-2103099 (HTR1A) genotype A_A,−4.08
same,mean of change in PANSS-N,SNP_A-2103099 (HTR1A) genotype A_B* (lowest response),−2.09
same,mean of change in PANSS-N,SNP_A-2103099 (HTR1A) genotype B_B,−3.40
same,mean of change in PANSS-N,SNP_A-2103099 (HTR1A) genotype nonAB** (highest response),−3.65
same,mean of change in PANSS-N,SNP_A-2120958 genotype A_A,−3.15
same,mean of change in PANSS-N,SNP_A-2120958 genotype A_B,−2.84
same,mean of change in PANSS-N,SNP_A-2120958 genotype B_B* (lowest response),−1.11
same,mean of change in PANSS-N,SNP_A-2120958 genotype nonBB** (highest response),−3.03
same,mean of change in PANSS-N,SNP_A-2170121 (C6) genotype A_A,−2.14
same,mean of change in PANSS-N,SNP_A-2170121 (C6) genotype A_B** (highest response),−4.78
same,mean of change in PANSS-N,SNP_A-2170121 (C6) genotype B_B,−2.52
same,mean of change in PANSS-N,SNP_A-2170121 (C6) genotype nonAB* (lowest response),−2.17
same,mean of change in PANSS-N,SNP_A-2274533 (LZTS1) genotype A_A** (highest response),−3.67
same,mean of change in PANSS-N,SNP_A-2274533 (LZTS1) genotype A_B,−1.52
same,mean of change in PANSS-N,SNP_A-2274533 (LZTS1) genotype B_B,−1.16
same,mean of change in PANSS-N,SNP_A-2274533 (LZTS1) genotype nonAA* (lowest response),−1.44
same,mean of change in PANSS-N,SNP_A-2283283 (XKR4) genotype A_A* (lowest response),−0.95
same,mean of change in PANSS-N,SNP_A-2283283 (XKR4) genotype A_B,−3.20
same,mean of change in PANSS-N,SNP_A-2283283 (XKR4) genotype B_B,−3.62
same,mean of change in PANSS-N,SNP_A-2283283 (XKR4) genotype nonAA** (highest response),−3.37
same,mean of change in PANSS-N,SNP_A-2284243 (GRIA4) genotype A_A,−3.70
same,mean of change in PANSS-N,SNP_A-2284243 (GRIA4) genotype A_B,−3.46
same,mean of change in PANSS-N,SNP_A-2284243 (GRIA4) genotype B_B* (lowest response),−0.52
same,mean of change in PANSS-N,SNP_A-2284243 (GRIA4) genotype nonBB** (highest response),−3.55
same,mean of change in PANSS-N,SNP_A-4204396 (CDH13) genotype A_A,−3.22
same,mean of change in PANSS-N,SNP_A-4204396 (CDH13) genotype A_B,−3.12
same,mean of change in PANSS-N,SNP_A-4204396 (CDH13) genotype B_B* (lowest response),1.62
same,mean of change in PANSS-N,SNP_A-4204396 (CDH13) genotype nonBB** (highest response),−3.18
same,mean of change in PANSS-N,SNP_A-4212785 (PPP1R3B) genotype A_A* (lowest response),4.72
same,mean of change in PANSS-N,SNP_A-4212785 (PPP1R3B) genotype A_B,−3.06
same,mean of change in PANSS-N,SNP_A-4212785 (PPP1R3B) genotype B_B,−3.11
same,mean of change in PANSS-N,SNP_A-4212785 (PPP1R3B) genotype nonAA** (highest response),−3.09
same,mean of change in PANSS-N,SNP_A-4230979 (ASB3) genotype A_A,−1.72
same,mean of change in PANSS-N,SNP_A-4230979 (ASB3) genotype A_B,−2.02
same,mean of change in PANSS-N,SNP_A-4230979 (ASB3) genotype B_B** (highest response),−4.23
same,mean of change in PANSS-N,SNP_A-4230979 (ASB3) genotype nonBB* (lowest response),−1.96
same,mean of change in PANSS-N,SNP_A-4256833 (MLCK) genotype A_A,−3.58
same,mean of change in PANSS-N,SNP_A-4256833 (MLCK) genotype A_B* (lowest response),−0.86
same,mean of change in PANSS-N,SNP_A-4256833 (MLCK) genotype B_B,−3.69
same,mean of change in PANSS-N,SNP_A-4256833 (MLCK) genotype nonAB** (highest response),−3.68
same,mean of change in PANSS-N,SNP_A-4258279 (RRM1) genotype A_A,−2.57
same,mean of change in PANSS-N,SNP_A-4258279 (RRM1) genotype A_B* (lowest response),−1.09
same,mean of change in PANSS-N,SNP_A-4258279 (RRM1) genotype B_B,−3.34
same,mean of change in PANSS-N,SNP_A-4258279 (RRM1) genotype nonAB** (highest response),−3.33
